Assay results as given in patent publication EP1134585B1, “Biosensor and method for the monitoring of herbicides” (CONSIGLIO NAZIONALE DELLE RICERCHE, priority 2000, dated 2001).
Like-named read-outs stand apart in the source and are kept apart here.

Key:
[1] = tested on: thylakoids from Amaranthus retroflexus, Wild-type; assay: Biosensor fluorescence response (Table D), wild-type biomediator; assay type: biochemical; details: herbicide concentration 10^-6 M
[2] = tested on: thylakoids from Amaranthus retroflexus, Mutant; assay type: biochemical; details: herbicide concentration 10^-6 M
PS II = PS II treated with CdCl2, refrigeration at 5°C, flow 0,2-2,0 ml/m
Source text: To further increase the stability of the biomediator the usefulness of a system for the refrigeration of the solution containing herbicide forwarded into the measuring cell experimentally was observed.

[3] = tested on: PS II isolated from thermophilic cyanobacteria; details: immobilized PS II, Clark electrode (Koblizek et al.); cited from earlier work
D1 protein Ala250->Arg = D1 protein Ala250->Arg (Chlamydomonas reinhardtii, UniProt P07753, A250R); details: cited from earlier work
D1 protein Ala250->Asn = D1 protein Ala250->Asn (Chlamydomonas reinhardtii, UniProt P07753, A250N); details: cited from earlier work
D1 protein Ala250->Asp = D1 protein Ala250->Asp (Chlamydomonas reinhardtii, UniProt P07753, A250D); details: cited from earlier work
D1 protein A1a250->His = D1 protein A1a250->His (Chlamydomonas reinhardtii, UniProt P07753, A250H); details: cited from earlier work
D1 protein A1a250→IIe = D1 protein A1a250→IIe (Chlamydomonas reinhardtii, UniProt P07753, A250I); details: cited from earlier work
D1 protein A1a250->Tyr = D1 protein A1a250->Tyr (Chlamydomonas reinhardtii, UniProt P07753, A250Y); details: cited from earlier work
[4] = target: D1 protein Ala250→Ser Phe255→IIe (Chlamydomonas reinhardtii, UniProt P07753, A250S/F255I); details: cited from earlier work
[5] = target: D1 protein Phe255->Tyr Ser264->Ala (Synechococcus elongatus, UniProt P04996, F255Y/S264A); details: code D5; cited from earlier work
D1 protein Val219->Ile = D1 protein Val219->Ile (Chlamydomonas reinhardtii, UniProt P07753, V219I); details: code Dr2; cited from earlier work
D1 protein A1a251→Gly = D1 protein A1a251→Gly (Chlamydomonas reinhardtii, UniProt P07753, A251G); details: cited from earlier work
D1 protein Phe255->Tyr [6] = target: D1 protein Phe255->Tyr (Chlamydomonas reinhardtii, UniProt P07753, F255Y); details: code Ar207+; cited from earlier work
D1 protein Phe255->Tyr [7] = target: D1 protein Phe255->Tyr (Synechococcus elongatus, UniProt P04996, F255Y); details: Synachococcus PCC7942, code TyrS; cited from earlier work
[8] = target: D1 protein Phe211->Ile Met214->Gly (Chlamydomonas reinhardtii, UniProt P07753, F211I/M214G); details: cited from earlier work
D1 protein Ser264->Thr [9] = details: Nicotiana tabacum (cell culture); cited from earlier work
[10] = tested on: D1 protein Val219->Ile Thr220->Ala Ser270->Tyr; details: code L5; cited from earlier work
Tyr222->Phe = details: code T4; cited from earlier work
D1 protein Arg257->Val = D1 protein Arg257->Val (Synechocystis sp., UniProt P16033, R257V); details: cited from earlier work
D1 protein Ser264->Ala [11] = target: D1 protein Ser264->Ala (Chlamydomonas reinhardtii, UniProt P07753, S264A); details: codes MZ1 MZ3 MZ5; cited from earlier work
D1 protein Ser264->Ala [12] = target: D1 protein Ser264->Ala (Synechococcus elongatus, UniProt P04996, S264A); details: Synechococcus sp. PCC7942, code Dil; cited from earlier work
D1 protein Ser264->Thr [13] = details: Euglena, code MSI; cited from earlier work
[14] = target: D1 protein Leu275->Phe (MZ4) (Chlamydomonas reinhardtii, UniProt P07753, L275F); details: code MZ4; cited from earlier work
[15] = target: D1 protein Phe211→Gly Met214→Gln (Chlamydomonas reinhardtii, UniProt P07753, F211G/M214Q); details: cited from earlier work
[16] = target: D1 protein Ser264→Ala Asn266→Thr (Chlamydomonas reinhardtii, UniProt P07753, N266T/S264A); details: cited from earlier work
[17] = target: D1 protein I1e259->Ser Ser264->Ala Asn266->Thr (Chlamydomonas reinhardtii, UniProt P07753, I259S/N266T/S264A); details: cited from earlier work

SMILES | Area % inhibition Wild-type [1] [%] | Area % inhibition Mutant [2] [%] | sensitivity (concentration) (PS II) | Supersensitivity R/S (D1 protein Ala250->Arg) | Supersensitivity R/S (D1 protein Ala250->Asn) | Supersensitivity R/S (D1 protein Ala250->Asp) | Supersensitivity R/S (D1 protein A1a250->Tyr) | Supersensitivity R/S [4] | Supersensitivity R/S [5] | further results
N#Cc1cc(Br)c(O)c(Br)c1 [Bromoxynil] | 97 | 95 | one order of magnitude higher | Bromoxynil 0,3 | Bromoxynil 0,2 | Bromoxynil 0,16 | Bromoxynil 0,4 | 0,2 | 0,8 | sensitivity [3]: 10^-7 mol/l; Supersensitivity R/S (D1 protein A1a250->His): Bromoxynil 0,16; Supersensitivity R/S (D1 protein A1a250→IIe): Bromoxynil 0,3
O=c1[nH]c2c(c(=O)n1C1CCCCC1)CCC2 [Lenacil] |  |  |  |  |  |  |  |  |  | Supersensitivity R/S (D1 protein Val219->Ile): Lenacil 0,8
CSc1nnc(C(C)(C)C)c(=O)n1N [Metribuzin] |  |  |  | Metribuzin 0,5 | Metribuzin 0,8 |  |  | 0,5 |  | Supersensitivity R/S (D1 protein A1a251→Gly): Metribuzin 0,6; Supersensitivity R/S (D1 protein Phe255->Tyr [6]): Metribuzin 0,6; Supersensitivity R/S (D1 protein Phe255->Tyr [7]): Metribuzin 0,8; Supersensitivity R/S [8]: 0,5
CCC(C)c1cc([N+](=O)[O-])cc([N+](=O)[O-])c1O (stereo not shown) [Dinoseb] | 99 | 93 |  |  |  |  |  |  | 0,08 | Supersensitivity R/S (D1 protein Ser264->Thr [9]): Dinoseb 0,13; Supersensitivity R/S [10]: Dinoseb 0,7
N#Cc1cc(I)c(O)c(I)c1 [loxynil] |  |  | one order of magnitude higher | loxynil 0,5 |  | loxynil 0,2 | loxynil 0,8 | loxynil 0,2 | loxynil 0,5 | Supersensitivity R/S (Tyr222->Phe): Iloxynil <0,01; Supersensitivity R/S (D1 protein Arg257->Val): loxynil 0,8; Supersensitivity R/S (D1 protein Ser264->Ala [11]): loxynil 0,5; Supersensitivity R/S (D1 protein Ser264->Ala [12]): loxynil 0,4; Supersensitivity R/S (D1 protein Ser264->Thr [13]): loxynil 0,2; Supersensitivity R/S [14]: locynil 0,2; Supersensitivity R/S [15]: loxynil 0,8; Supersensitivity R/S [16]: loxynil 0,8; Supersensitivity R/S [17]: loxynil 0,13
